Article PMC4476799, “Englerin A Agonizes the TRPC4/C5 Cation Channels to Inhibit Tumor Cell Line Proliferation” (PLoS ONE, 2015)
Several values for one entry are separate records, joined by “and”; a condition that tells them apart may be missing. Equal values may be shown once.

Columns and labels:
[1] = Anesthetized rat experiments (hemodynamics, blood levels); assay type: in vivo; settings: individual animals; for Outcome: IV infusion 0.3 mg/kg englerin B (doses up to 0.3 mg/kg); for Compound concentration in blood: IV infusion 0.3 mg/kg englerin B
Method: Rats were anesthetized via an intra-peritoneal (ip) injection of ketamine/xylazine (80/10 mg/kg). A half dose (40 mg/kg ketamine) was given as supplemental anesthesia as needed. Animals were placed on a heating pad set to maintain body temperature at approximately 37°C. Body temperature was monitored throughout the experiment via a rectal temperature probe.
Once consciousness had been lost, the trachea was isolated and an endotracheal tube was inserted for mechanical ventilation. The endotracheal tube was connected to a mechanical ventilator that provided positive-pressure ventilation with room air, set to maintain 60 breaths/min with a tidal volume of 15 ml/kg. An incision was made on both sides of the neck. Both carotid arteries and a jugular vein were isolated and ligated anteriorly. A Millar pressure catheter was introduced into the left carotid artery to measure systolic arterial pressure (SAP), diastolic pressure (DAP), mean arterial pressure (MAP) and heart rate (HR). Another Millar pressure catheter was introduced into the left ventricular chamber through the right carotid artery to measure left ventricular systolic pressure (LVSP) and left ventricular end diastolic pressure (LVEDP).
A cannula for test compound administration was placed into a jugular vein. A lead II electrocardiogram was recorded via needle electrodes placed in the right arm, left leg and chest and PR and QRS intervals were reported.
After rats were surgically instrumented, hemodynamic and electrocardiographic monitoring was initiated. […] The duration of the experimental testing was approximately 60 minutes.
At the end of each infusion period, approximately 0.5 ml of blood was withdrawn from the vena cava into a pre-chilled collection tube containing 2.5 ml of 90% ACN (acetonitrile):10% water.

[2] = male, Sprague Dawley, rat, in vivo, po, 5 mg/kg
Method: A 25 μl aliquot of sample was subjected to protein precipitation using 150 μl of acetonitrile containing 100 ng/ml of internal standard (glyburide). After vortex and centrifugation for 5 minutes at 4000 revolutions per minute, 125 μl of supernatant was transferred to a 1 ml 96-well plate, followed by the addition of 50 μl of water. The analysis was conducted by using HPLC separation coupled with mass spectrometric detection.
Agilent 1100 (Santa Clara, CA) was used for LC separations coupled with CTC PAL (Zwingen, Switzerland). […] A Sciex API 4000 Q Trap mass spectrometer equipped with a Turbo Ionspray interface from Applied Biosystems (Framingham, MA) was used for detection. The instrument was operated in the positive ion MRM mode employing nitrogen as a collision gas. […] Data were acquired and processed by Sciex Analyst 1.5.2 software.
Standard regression and back-calculation of unknown concentrations were performed by Thermo Watson 7.4 software purchased from Thermo Fisher Scientific, Inc. (Philadelphia, PA). Quantification of the parent compound in rat blood was based on at least 5-point calibration curve. […] The bias of all calibration standards and quality control samples was within the acceptance criteria of ± 30%.

For `CC(C)[C@@]12C[C@@H](O)[C@@](C)(O1)[C@@H]1CC[C@@H](C)[C@H]1[C@@H]2OC(=O)/C=C/c1ccccc1` [Englerin B], the Outcome [1] was “No effect”, the Outcome ([1]; listed as englerin B) was “no effect on mean arterial pressure or animal viability” and the “Compound concentration in blood” value [1] was 539 nM and 362 nM and 462 nM and 442 nM. For the same compound, the “Compound concentration in blood” value ([1]; listed as englerin B) was 362 to 539 nM and the “blood levels of englerin B after dosing englerin A” value [2] was over 50 nM.
